From PubChem BioAssay (NCI)
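Assay format: 96-well plates, 48-hour exposure. GI50 is the concentration that inhibits growth by half. TGI: concentration producing complete growth inhibition.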

Assays:
Assay in all cases: inhibition of tumour cell growth, NCI panel, 48 h
HCT-15 colon = test system: HCT-15 colon
HOP-62 NSCLC = test system: HOP-62 NSCLC
IGROV1 ovarian = test system: IGROV1 ovarian
K-562 leukemia = test system: K-562 leukemia
M14 melanoma = test system: M14 melanoma
MDA-MB-435 = test system: MDA-MB-435
NCI/ADR-RES ovarian = test system: NCI/ADR-RES ovarian
SF-295 CNS = test system: SF-295 CNS
SK-MEL-2 melanoma = test system: SK-MEL-2 melanoma
SR leukemia = test system: SR leukemia

Row | Structure (SMILES) | GI50 (HCT-15 colon) | TGI (HCT-15 colon) | GI50 (HOP-62 NSCLC) | TGI (HOP-62 NSCLC) | GI50 (IGROV1 ovarian) | TGI (IGROV1 ovarian) | GI50 (K-562 leukemia) | TGI (K-562 leukemia) | GI50 (M14 melanoma) | TGI (M14 melanoma) | GI50 (MDA-MB-435) | TGI (MDA-MB-435) | GI50 (NCI/ADR-RES ovarian) | TGI (NCI/ADR-RES ovarian) | GI50 (SF-295 CNS) | TGI (SF-295 CNS) | GI50 (SK-MEL-2 melanoma) | TGI (SK-MEL-2 melanoma) | GI50 (SR leukemia) | TGI (SR leukemia)
1 | O=C(Nc1cccc(-n2cc(-c3ccncc3)c(-c3cc(O)cc(Cl)c3)n2)c1)c1cc(C(F)(F)F)cc(C(F)(F)F)c1 | 2.6 µM | 14.7 µM | 9.82 µM | > 100 µM | 7.96 µM | > 100 µM | 3.24 µM | > 100 µM | 3.01 µM | > 100 µM | 3.16 µM | > 100 µM | 4.55 µM | > 100 µM | 2.37 µM | 7.15 µM | 3.28 µM | 9.51 µM | 1.61 µM | 5.01 µM
2 | Nc1nc(Nc2ccccc2SSc2ccccc2Nc2nc(N)nc(C(Cl)(Cl)Cl)n2)nc(C(Cl)(Cl)Cl)n1 | 3.89 µM | 15 µM | 2.07 µM | 6.33 µM | 3.49 µM | 15.7 µM | 3.93 µM | 17.7 µM | 9.13 µM | 22.9 µM | 6.39 µM | 24.9 µM | 3.68 µM | 16.6 µM | 1.99 µM | 4.75 µM | 13.2 µM | 33.9 µM | 1.63 µM | 3.76 µM
3 | c1ccc(CCc2cccnc2)nc1 | – | > 100 µM | – | > 100 µM | – | > 100 µM | – | > 100 µM | – | > 100 µM | – | > 100 µM | – | > 100 µM | – | > 100 µM | – | > 100 µM | – | > 100 µM
4 | CCc1cccc(C)c1NC(=O)c1sc2nc3c(cc2c1N)C(=O)CCC3 | 0.495 µM | > 100 µM | 10.7 µM | > 100 µM | 4.75 µM | > 100 µM | 0.422 µM | 22.4 µM | 0.43 µM | 25.8 µM | 0.159 µM | – | 0.768 µM | > 100 µM | 0.299 µM | > 100 µM | 0.365 µM | 27.3 µM | 0.501 µM | > 41.1 µM
5 | OCCNC1c2cc(Cl)ccc2-c2c(Cl)cc(Cl)cc21 (centres undefined) | – | > 100 µM | – | > 100 µM | – | 47 µM | – | > 100 µM | – | > 100 µM | – | > 100 µM | – | > 100 µM | – | > 100 µM | – | 45.4 µM | – | 44.9 µM
6 | CC1OC(OC2C(O)CC(OC3C(O)CC(OC4CCC5(C)C(CCC6C5CC(O)C5(C)C(C7=CC(=O)OC7)CCC65O)C4)OC3C)OC2C)CC(O)C1O (centres undefined) | 0.113 µM | 0.293 µM | 0.036 µM | 0.125 µM | 0.127 µM | 1.11 µM | 0.0319 µM | 0.122 µM | 0.176 µM | 0.349 µM | 0.134 µM | 0.318 µM | 0.0385 µM | 0.145 µM | 0.0317 µM | 0.171 µM | 0.128 µM | 0.346 µM | 0.0244 µM | 0.0897 µM
